Experiments:
Assay type in all cases: in vivo
Conditions in all cases: mean of three results
Brassica napus = experiment: Drought stress test, spray application to greenhouse plants (Brassica napus)
Method: (§1) Seeds of monocotyledonous and dicotyledonous crop plants were laid out in sandy loam in wood-fiber pots, covered with soil and cultivated in a greenhouse under good growth conditions. The test plants were treated at the early leaf stage (BBCH10-BBCH13). To ensure uniform water supply before commencement of stress, the potted plants were supplied with the maximum amount of water immediately beforehand by dam irrigation and, after application, transferred into plastic inserts in order to prevent subsequent, excessively rapid drying. The compounds according to the invention, formulated in the form of wettable powders (WP), wettable granules (WG), suspension concentrates (SC) or emulsion concentrates (EC), were sprayed onto the green parts of the plants as an aqueous suspension at an equivalent water application rate of 600 l/ha with addition of 0.2% wetting agent (agrotin). Substance application is followed immediately by stress treatment of the plants (cold or drought stress). For cold stress treatment, the plants were kept under the following controlled conditions: • “day”: 12 hours with illumination at 8° C. • “night”: 12 hours without illumination at 1° C.
(§2) Drought stress was induced by gradual drying out under the following conditions: • “day”: 14 hours with illumination at 26° C. • “night”: 10 hours without illumination at 18° C.
(§3) The duration of the respective stress phases was guided mainly by the state of the untreated (=treated with blank formulation but without test compound), stressed control plants and thus varied from crop to crop. It was ended (by re-irrigating or transfer to a greenhouse with good growth conditions) as soon as irreversible damage was observed on the untreated, stressed control plants. In the case of dicotyledonous crops, for example oilseed rape and soybeans, the duration of the drought stress phase varied between 3 and 5 days; in the case of monocotyledonous crops, for example wheat, barley or corn, it varied between 6 and 10 days. The duration of the cold stress phase varied between 12 and 14 days.
(§4) The end of the stress phase was followed by an approx. 5-7-day recovery phase, during which the plants were once again kept under good growth conditions in a greenhouse. In order to rule out any influence of the effects observed by any fungicidal action of the test compounds, it was additionally ensured that the tests proceeded without fungal infection and without infection pressure.
(§5) After the recovery phase had ended, the intensities of damage were rated visually in comparison to untreated, unstressed controls of the same age (in the case of drought stress) or the same growth stage (in the case of cold stress). The intensity of damage was first recorded as a percentage (100%=plants have died, 0%=like control plants). These values were then used to calculate the efficacy of the test compounds (=percentage reduction in the intensity of damage as a result of substance application) by the following formula:
(§6) [formula] EF: efficacy (%) DVus: damage value of the untreated, stressed control DVts: damage value of the plants treated with test compound
(§7) The tables below list mean values in each case from three results of the same test.
(§8) Efficacies of selected compounds of the formula (I) under drought stress: […]

Triticum aestivum = experiment: Drought stress test, spray application to greenhouse plants (Triticum aestivum)
Method: as §1, §2, §3, §4, §5, §6, §7, §8

Zea mays = experiment: Drought stress test, spray application to greenhouse plants (Zea mays)
Method: as §1, §2, §3, §4, §5, §6, §7, §8

Compound	EF (BRSNS), efficacy = percentage reduction in the intensity of damage (Brassica napus; dosage 250 g/ha)	EF (TRZAS), efficacy = percentage reduction in the intensity of damage (Triticum aestivum; dosage 250 g/ha)	also measured
CCC/C(C#CC1(O)C(C)=CC(=O)CC1(C)C)=C/C(=O)OCC (centres unmarked) [I.1-2, Ethyl (2Z)-3-[(1-hydroxy-2,6,6-trimethyl-4-oxocyclohex-2-en-1-yl)ethynyl]hex-2-enoate]	>5%	>5%	–
CCOC(=O)C=C(C=CC1(O)C(C)=CC(=O)CC1(C)C)C(C)(C)C (centres unmarked) [I.1-92]	–	>5%	EF (ZEAMX), efficacy = percentage reduction in the intensity of damage (Zea mays; dosage 250 g/ha): >5%
CCOC(=O)/C=C(\C#CC1(O)C(C)=CC(=O)CC1(C)C)C(F)(F)F (centres unmarked) [I.1-14, Ethyl (2E)-5-(1-hydroxy-2,6,6-trimethyl-4-oxocyclohex-2-en-1-yl)-3-(trifluoromethyl)pent-2-en-4-ynoate]	–	–	EF (ZEAMX), efficacy = percentage reduction in the intensity of damage (Zea mays; dosage 25 g/ha): >5%
CCC(C#CC1(O)C(C)=CC(=O)CC1(C)C)=CC(=O)NC(C)C (centres unmarked) [I.2-14]	–	–	EF (ZEAMX), efficacy = percentage reduction in the intensity of damage (Zea mays; dosage 25 g/ha): >5%
CCOC(=O)C=C(C#CC1(O)C(C)=CC(=O)CC1(C)C)C1CC1 (centres unmarked) [I.1-114]	>5%	>5%	–
CCC(C#CC1(O)C(C)=CC(=O)CC1(C)C)=CC(=O)NC1CC1 (centres unmarked) [I.2-18]	>5%	–	EF (ZEAMX), efficacy = percentage reduction in the intensity of damage (Zea mays; dosage 25 g/ha): >5%
CCOC(=O)C=C(C=CC1(O)C(C)=CC(=O)CC1(C)C)C1CC1 (centres unmarked) [I.1-116]	>5%	>5%	–
CCCCC(C#CC1(O)C(C)=CC(=O)CC1(C)C)=CC(=O)OCC (centres unmarked) [I.1-60]	>5%	>5%	–
CCOC(=O)C=C(C=CC1(O)C(C)=CC(=O)CC1(C)C)C1CCCC1 (centres unmarked) [I.1-124]	–	>5%	–
CCCCCCC(C=CC1(O)C(C)=CC(=O)CC1(C)C)=CC(=O)OCC (centres unmarked) [I.1-74]	>5%	–	–
CCOC(=O)C=C(C=CC1(O)C(C)=CC(=O)CC1(C)C)C(C)C (centres unmarked) [I.1-86]	–	>5%	–
CCC(C=CC1(O)C(C)=CC(=O)CC1(C)C)=CC(=O)O (centres unmarked) [I.1-20]	>5%	>5%	EF (ZEAMX), efficacy = percentage reduction in the intensity of damage (Zea mays; dosage 250 g/ha): >5%
CC1=CC(=O)CC(C)(C)C1(O)C#C/C(=C\C(=O)O)C(F)(F)F (centres unmarked) [I.1-23, (2E)-5-(1-Hydroxy-2,6,6-trimethyl-4-oxocyclohex-2-en-1-yl)-3-(trifluoromethyl)pent-2-en-4-ynoic acid]	>5%	>5%	EF (ZEAMX), efficacy = percentage reduction in the intensity of damage (Zea mays; dosage 250 g/ha): >5%
CCOC(=O)C=C(C#CC1(O)C(C)=CC(=O)CC1(C)C)C(C)C (centres unmarked) [I.1-84]	–	–	EF (ZEAMX), efficacy = percentage reduction in the intensity of damage (Zea mays; dosage 250 g/ha): >5%
CCOC(=O)C=C(C=CC1(O)C(C)=CC(=O)CC1(C)C)CC (centres unmarked) [I.1-10]	>5%	>5%	EF (ZEAMX), efficacy = percentage reduction in the intensity of damage (Zea mays; dosage 250 g/ha): >5%
CCCCCC(C=CC1(O)C(C)=CC(=O)CC1(C)C)=CC(=O)OCC (centres unmarked) [I.1-68]	>5%	–	–
CCC(C=CC1(O)C(C)=CC(=O)CC1(C)C)=CC(=O)OC (centres unmarked) [I.1-144]	–	–	EF (BRSNS), efficacy = percentage reduction in the intensity of damage (Brassica napus; dosage 25 g/ha): >5%; EF (TRZAS), efficacy = percentage reduction in the intensity of damage (Triticum aestivum; dosage 25 g/ha): >5%
CCOC(=O)C=C(C#CC1(O)C(C)=CC(=O)CC1(C)C)C1CCCC1 (centres unmarked) [I.1-122]	–	–	EF (TRZAS), efficacy = percentage reduction in the intensity of damage (Triticum aestivum; dosage 25 g/ha): >5%
CCOC(=O)C=C(C#CC1(O)C(C)=CC(=O)CC1(C)C)CC (centres unmarked) [I.1-8]	>5%	>5%	–
CCCC(=C/C(=O)OCC)/C=C/C1(O)C(C)=CC(=O)CC1(C)C (centres unmarked) [I.1-4, Ethyl (2Z)-3-[(E)-2-(1-hydroxy-2,6,6-trimethyl-4-oxocyclohex-2-en-1-yl)vinyl]hex-2-enoate]	>5%	>5%	–
CC1=CC(=O)CC(C)(C)C1(O)C=CC(=CC(=O)O)C1CC1 (centres unmarked) [I.1-46]	>5%	>5%	EF (ZEAMX), efficacy = percentage reduction in the intensity of damage (Zea mays; dosage 250 g/ha): >5%
CCC(C#CC1(O)C(C)=CC(=O)CC1(C)C)=CC(=O)OC (centres unmarked) [I.1-142]	>5%	>5%	EF (ZEAMX), efficacy = percentage reduction in the intensity of damage (Zea mays; dosage 250 g/ha): >5%
CCOC(=O)/C=C(\C=C\C1(O)C(C)=CC(=O)CC1(C)C)C(F)(F)F (centres unmarked) [I.1-16, Ethyl (2E,4E)-5-(1-hydroxy-2,6,6-trimethyl-4-oxocyclohex-2-en-1-yl)-3-(trifluoromethyl)penta-2,4-dienoate]	>5%	>5%	–
CCCCCCC(C#CC1(O)C(C)=CC(=O)CC1(C)C)=CC(=O)OCC (centres unmarked) [I.1-72]	>5%	–	–

— US9185914B2, “Substituted 5-(cyclohex-2-en-1-yl)-penta-2,4-dienes and 5-(cyclohex-2-en-1-yl)-pent-2-en-4-ines as active agents against abiotic stress in plants” (BAYER INTELLECTUAL PROPERTY GMBH, priority 2011, dated 2015)
